Measurements taken from US20220313620A1, “COMPOSITION FOR PREVENTING AND TREATING TAUOPATHIES” (SERVICIO ANDALUZ DE SALUD, priority 2019, published 2022).

Key:
insulin = test: Plasma insulin (ELISA) and HOMA insulin resistance index after acute oral gavage; format: in vivo; details: adult male Wistar rats
Procedure: The protocol was approved by the Ethics Committee for Animal Experiments of the University of Malaga.
D-Pinitol (3-0-methyl-D-chiro-inositol) was generously provided by EURONUTRA SL (https://www.euronutra.com/, Malaga, Spain), in the form of crystalline fine powder (lot: PPN-M0201). For acute treatments, D-Pinitol was dissolved in water to be administered by gavage (orally) at different concentrations (100 mg/Kg and 500 mg/Kg), drug was administered at a volume of 1 ml/kg.
After 18 hours of fasting, D-Pinitol dissolved in water was administered acutely by gavage (100 mg/kg in a first study, and 500 mg/kg in a subsequent study). After administration, the animals were sacrificed in groups at different times (being time 0 the administration of D-Pinitol). For the first study (100 mg/kg), groups of animals were sacrificed at times: 10, 20, 30, 60, 120, 240 and 360 minutes after administration; for the second study (500 mg/kg), animals were sacrificed at times: 60, 120 and 240 minutes after administration. As a control group, a group was administered only with water (by gavage).
Animals were anesthetized with sodium pentobarbital (50 mg/Kg, i.p.), blood, brain and liver samples were collected. Blood was centrifuged (2100 g for 8 min, 4° C.) and the plasma kept for further analysis. Liver and brain samples were flash-frozen in liquid N2, then stored at −80° C. until further analysis.
The plasma levels of insulin and ghrelin were determined with an enzyme-linked immunosorbent assay (ELISA) method using commercial kits: EMD Millipore Corporation (Billerica, Mass., USA) Cat. #EZRMI-13K and Cat. #EZRGRT-91K, respectively. Glucagon levels in plasma was determined with a Glucagon Enzyme Immunoassay (EIA) Kit: Cat. #RAB0202 Sigma-Aldrich (Saint Louis, Mo., USA). All serum samples were assayed in duplicate within one assay, and results were expressed in terms of the particular standard hormone.

mTOR = test: Hypothalamic mTOR phosphorylation (western blot) after acute oral gavage; format: in vivo; details: oral 500 mg/kg, adult male Wistar rats, hypothalamus, FIG. 3F
Procedure: After 18 hours of fasting, D-Pinitol dissolved in water was administered acutely by gavage (100 mg/kg in a first study, and 500 mg/kg in a subsequent study). After administration, the animals were sacrificed in groups at different times (being time 0 the administration of D-Pinitol). For the first study (100 mg/kg), groups of animals were sacrificed at times: 10, 20, 30, 60, 120, 240 and 360 minutes after administration; for the second study (500 mg/kg), animals were sacrificed at times: 60, 120 and 240 minutes after administration. As a control group, a group was administered only with water (by gavage). Animals were anesthetized with sodium pentobarbital (50 mg/Kg, i.p.), blood, brain and liver samples were collected. Blood was centrifuged (2100 g for 8 min, 4° C.) and the plasma kept for further analysis. Liver and brain samples were flash-frozen in liquid N2, then stored at −80° C. until further analysis. Brain extract. […] The expression of protein including mTOR (289 kDa) and Adaptin (100 kDa) were analysed by western blot. […] Bands were quantified by densitometric analysis using ImageJ software (Rasband, WS, Image), US National Institutes of Health, Bethesda, Md., USA).

In the case of `COC1[C@@H](O)[C@@H](O)C(O)[C@H](O)[C@H]1O` (stereo partly drawn) [DPIN, (1S,2S,4S,5R)-6-methoxycyclohexane-1,2,3,4,5-pentol], the “insulin release into the blood circulation” value (insulin; oral 100 mg/kg, FIG. 2B) is reported as “decreased”, the “insulin resistance measured by the HOMA index” value (insulin; oral 100 mg/kg, FIG. 2C) is reported as “reduction” and the “insulin release into the blood circulation” value (insulin; oral 500 mg/kg, FIG. 3B) is reported as “decreased”. For the same compound, the “insulin resistance measured by the HOMA index” value (insulin; oral 500 mg/kg, FIG. 3D) was “reduction” and the “hypothalamic mTOR signaling through its phosphorylation” value (mTOR) was “activation”.
